From patent publication US10106501B2, “Nuclear receptor modulators” (AbbVie Inc., priority 2015, dated 2018)

Target: T1, chimeric human RORγ-Gal4 receptor (Homo sapiens, UniProt P51449)
T1 sequence (P51449 269-508 limits assumed): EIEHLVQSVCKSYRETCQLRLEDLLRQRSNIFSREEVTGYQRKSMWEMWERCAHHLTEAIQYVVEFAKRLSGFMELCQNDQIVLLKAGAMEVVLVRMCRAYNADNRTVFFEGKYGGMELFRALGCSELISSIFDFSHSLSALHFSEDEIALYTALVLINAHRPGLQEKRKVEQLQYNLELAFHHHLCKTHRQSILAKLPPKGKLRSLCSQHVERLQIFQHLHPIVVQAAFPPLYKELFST
Assay: transient transactivation assay (RORγ-Gal4 luciferase reporter)
Format: cell-based
Conditions: Cos-7 cells transfected with RORγ-Gal4 and 5Gal4 pGL3 TK Luc reporter; overnight incubation; T0901317 at 10^-5 M as reference; read-out: IC50

| IC50 [nM] | Structure (SMILES) |
| --- | --- |
| < 100 | Cc1cc(C(F)(F)F)cc2c1cc(C(=O)c1c(Cl)ccc(C(=O)N3CC[C@H](C(=O)O)[C@H](C)C3)c1Cl)n2C (racemic) [AQ-3] |
| 500 to 1000 | Cc1cc(C#N)cc2c1cc(Cc1c(Cl)ccc(O[C@H]3CC[C@@H](C(=O)O)C3)c1Cl)n2C (relative stereo) [Example AG1, cis-3-(2,4-dichloro-3-((6-cyano-1,4-dimethyl-1H-indol-2-yl)methyl)phenoxy)cyclopentanecarboxylic acid] |
| 100 to 500 | Cc1cc(C#N)cc2c1cc(Cc1c(Cl)ccc(O[C@H]3CC[C@H](C(=O)O)C3)c1Cl)n2C (relative stereo) [Example AG, trans-3-(2,4-dichloro-3-((6-cyano-1,4-dimethyl-1H-indol-2-yl)methyl)phenoxy)cyclopentanecarboxylic acid] |
| < 100 | COCCN1CCN(C(=O)c2ccc(Cl)c(Cc3cc4c(C)cc(C(F)(F)F)cc4n3C)c2Cl)CC1 [A, (2,4-dichloro-3-((1,4-dimethyl-6-(trifluoromethyl)-1H-indol-2-yl)methyl)phenyl)(4-(2-methoxyethyl)piperazin-1-yl)methanone] |
| < 100 | Cc1cc(C#N)cc2c1cc(Cc1c(Cl)ccc(C(=O)N3CCC(C(C)O)CC3)c1Cl)n2C (stereo not shown) [AA-1] |
| 100 to 500 | Cc1cc(C#N)cc2c1cc(Cc1c(Cl)ccc(C(=O)N3CCCC(O)C3)c1Cl)n2C (stereo not shown) [AA-5] |
| 100 to 500 | Cc1cc(C#N)cc2c1cc(Cc1c(Cl)ccc(C(=O)N3CCC(N(C)C)CC3)c1Cl)n2C [AA-6] |
| < 100 | Cc1cc(C#N)cc2c1cc(Cc1c(Cl)ccc(C(=O)N3CCC(C(C)(C)CO)CC3)c1Cl)n2C [AA-8] |
| 100 to 500 | Cc1cc(C#N)cc2c1cc(Cc1c(Cl)ccc(C(=O)N3CCN(C)C(C)C3)c1Cl)n2C (stereo not shown) [AA-10] |
| < 100 | Cc1cc(C#N)cc2c1cc(Cc1c(Cl)ccc(C(=O)N3CCN(C(C)C)CC3)c1Cl)n2C [AA-11] |
| 100 to 500 | Cc1cc(C#N)cc2c1cc(Cc1c(Cl)ccc(C(=O)N3CCCN(CCO)CC3)c1Cl)n2C [AA-13] |
| 100 to 500 | Cc1cc(C#N)cc2c1cc(Cc1c(Cl)ccc(C(=O)N3CCC(N(C)C)C3)c1Cl)n2C (stereo not shown) [AA-14] |
| 100 to 500 | Cc1cc(C#N)cc2c1cc(Cc1c(Cl)ccc(C(=O)N3CC(N4CCCC4)C3)c1Cl)n2C [AA-16] |
| 100 to 500 | Cc1cc(C#N)cc2c1cc(Cc1c(Cl)ccc(C(=O)N3CCC(CO)C3)c1Cl)n2C (stereo not shown) [AA-19] |
| 100 to 500 | Cc1cc(C#N)cc2c1cc(Cc1c(Cl)ccc(C(=O)N3CC(O)C3)c1Cl)n2C [AA-20] |
| 100 to 500 | COC1CN(C(=O)c2ccc(Cl)c(Cc3cc4c(C)cc(C#N)cc4n3C)c2Cl)C1 [AA-21] |
| 100 to 500 | Cc1cc(C#N)cc2c1cc(Cc1c(Cl)ccc(C(=O)NC3CCC(O)CC3)c1Cl)n2C (stereo not shown) [AA-22] |
| 500 to 1000 | Cc1cc(C#N)cc2c1cc(Cc1c(Cl)ccc(C(=O)NC3CCOCC3)c1Cl)n2C [AA-23] |
| 100 to 500 | Cc1cc(C#N)cc2c1cc(Cc1c(Cl)ccc(C(=O)NC3COC3)c1Cl)n2C [AA-24] |
| 100 to 500 | Cc1cc(C#N)cc2c1cc(Cc1c(Cl)ccc(C(=O)N3CCC4(CC3)COC4)c1Cl)n2C [AA-25] |
| 100 to 500 | Cc1cc(C#N)cc2c1cc(Cc1c(Cl)ccc(C(=O)N3CC4(COC4)C3)c1Cl)n2C [AA-26] |
| 100 to 500 | CNC(=O)[C@@H]1CCCN1C(=O)c1ccc(Cl)c(Cc2cc3c(C)cc(C#N)cc3n2C)c1Cl [AA-32] |
| 500 to 1000 | Cc1cc(C#N)cc2c1cc(C(=O)c1c(Cl)ccc(C(=O)N3CC(O)C3)c1Cl)n2C [AN-1] |
| < 100 | Cc1cc(C(F)(F)F)cc2c1cc(C(=O)c1c(Cl)ccc(C(=O)N3CCC(C4COC4)CC3)c1Cl)n2C [AP-6] |

| IC50 [nM] | Structure (SMILES) |
| --- | --- |
| 100 to 500 | Cc1cc(C(F)(F)F)cc2c1cc(C(=O)c1c(Cl)ccc(C(=O)N3C[C@@H]4[C@H](C3)[C@H]4C(=O)O)c1Cl)n2C [AQ-2] |
| < 100 | Cc1cc(C(F)(F)F)cc2c1cc(C(=O)c1c(Cl)ccc(C(=O)N3CC[C@H](C(=O)O)[C@H](C)C3)c1Cl)n2C [AQ-4] |
| < 100 | Cc1cc(C(F)(F)F)cc2c1cc(C(=O)c1c(Cl)ccc(C(=O)N3CC[C@@H](C(=O)O)[C@@H](C)C3)c1Cl)n2C [AQ-5] |
| < 100 | Cc1cc(C(F)(F)F)cc2c1cc(Cc1c(Cl)ccc(C(=O)N3CCC(C(=O)O)CC3)c1Cl)n2C [B, 1-(2,4-dichloro-3-((1,4-dimethyl-6-(trifluoromethyl)-1H-indol-2-yl)methyl)benzoyl)piperidine-4-carboxylic acid] |
| < 100 | Cc1cc(C#N)cc2c1cc(Cc1c(Cl)cnc(C(=O)N3CCC(C4COC4)CC3)c1Cl)n2C [BF-1] |
| 100 to 500 | Cc1cc(C#N)cc2c1cc(Cc1c(Cl)cnc(C(=O)N3CCC(O)CC3)c1Cl)n2C [BF-2] |
| 100 to 500 | Cc1cc(C#N)cc2c1cc(Cc1c(Cl)cnc(C(=O)N3CCN(C4COC4)CC3)c1Cl)n2C [BF-4] |
| 100 to 500 | Cc1cc(C(F)(F)F)cc2c1cc(Cc1c(Cl)ncc(C(=O)N3CCC(O)(CCO)CC3)c1Cl)n2C [BH-2] |
| 1000 to 10000 | CNC(=O)[C@@H]1CCCN1C(=O)c1ccc(Cl)c(Cc2nc3c(C)cc(C(F)(F)F)cc3n2C)c1Cl [BJ-1] |
| < 100 | Cc1cc(C(F)(F)F)cc2c1nc(Cc1c(Cl)ccc(C(=O)N3CCC4(CCOC4)CC3)c1Cl)n2C [BJ-8] |
| 100 to 500 | Cc1cc(C(F)(F)F)cc2c1nc(Cc1c(Cl)ccc(C(=O)N3CCC(C(C)(C)O)CC3)c1Cl)n2C [BJ-9] |
| < 100 | Cc1cc(C(F)(F)F)cc2c1nc(Cc1c(Cl)ccc(C(=O)N3CCC(C(C)(C)CO)CC3)c1Cl)n2C [BJ-10] |
| < 100 | Cc1cc(C(F)(F)F)cc2c1nc(Cc1c(Cl)ccc(C(=O)N3CCC(C(C)O)CC3)c1Cl)n2C (stereo not shown) [BJ-12] |
| 100 to 500 | COCC1CCN(C(=O)c2ccc(Cl)c(Cc3nc4c(C)cc(C(F)(F)F)cc4n3C)c2Cl)CC1 [BJ-13] |
| 100 to 500 | Cc1cc(C(F)(F)F)cc2c1nc(Cc1c(Cl)ccc(C(=O)N3CCC(CC(C)(C)O)CC3)c1Cl)n2C [BJ-14] |
| 100 to 500 | Cc1cc(C(F)(F)F)cc2c1nc(Cc1c(Cl)ccc(C(=O)N3CCC(CCO)CC3)c1Cl)n2C [BJ-16] |
| < 100 | Cc1cc(C(F)(F)F)cc2c1nc(Cc1c(Cl)ccc(C(=O)N3CCC(C4COC4)CC3)c1Cl)n2C [BJ-17] |
| < 100 | COCCC1CCN(C(=O)c2ccc(Cl)c(Cc3nc4c(C)cc(C(F)(F)F)cc4n3C)c2Cl)CC1 [BJ-18] |
| 100 to 500 | Cc1cc(C(F)(F)F)cc2c1nc(Cc1c(Cl)ccc(C(=O)N3CCC(CC(C)O)CC3)c1Cl)n2C (stereo not shown) [BJ-19] |
| 100 to 500 | COC1CCC(NC(=O)c2ccc(Cl)c(Cc3nc4c(C)cc(C(F)(F)F)cc4n3C)c2Cl)CC1 (stereo not shown) [BJ-22] |
| 500 to 1000 | Cc1cc(C(F)(F)F)cc2c1nc(Cc1c(Cl)ccc(C(=O)N3CCC4(CC3)COC4)c1Cl)n2C [BJ-25] |
| 1000 to 10000 | Cc1cc(C(F)(F)F)cc2c1nc(Cc1c(Cl)ccc(C(=O)N3CC4(COC4)C3)c1Cl)n2C [BJ-28] |
| 100 to 500 | Cc1cc(C(F)(F)F)cc2c1nc(Cc1c(Cl)ccc(C(=O)N3CCC(N(C)C)CC3)c1Cl)n2C [BJ-30] |
| 1000 to 10000 | Cc1cc(C(F)(F)F)cc2c1nc(Cc1c(Cl)ccc(C(=O)N3CCN(C)C(C)C3)c1Cl)n2C (stereo not shown) [BJ-31] |

| IC50 [nM] | Structure (SMILES) |
| --- | --- |
| 100 to 500 | Cc1cc(C(F)(F)F)cc2c1nc(Cc1c(Cl)ccc(C(=O)N3CCN(C4COC4)CC3)c1Cl)n2C [BJ-38] |
| 100 to 500 | Cc1cc(C(F)(F)F)cc2c1nc(Cc1c(Cl)ccc(C(=O)N3CCN(C(C)C)CC3)c1Cl)n2C [BJ-40] |
| 100 to 500 | COCCC1CCN(C(=O)c2ccc(Cl)c(Cc3nc4c(C)cc(C#N)cc4n3C)c2Cl)CC1 [BN-3] |
| 100 to 500 | Cc1cc(C#N)cc2c1nc(Cc1c(Cl)ccc(C(=O)N3CCC(C(C)(C)CO)CC3)c1Cl)n2C [BN-6] |
| 100 to 500 | Cc1cc(C#N)cc2c1nc(Cc1c(Cl)ccc(C(=O)N3CCC(C(C)(C)O)CC3)c1Cl)n2C [BN-7] |
| 100 to 500 | Cc1cc(C#N)cc2c1nc(Cc1c(Cl)ccc(C(=O)N3CCC4(CCOC4)CC3)c1Cl)n2C [BN-8] |
| 500 to 1000 | Cc1cc(C#N)cc2c1nc(Cc1c(Cl)ccc(C(=O)N3CCN(C4COC4)CC3)c1Cl)n2C [BN-11] |
| 100 to 500 | Cc1cc(C#N)cc2c1nc(Cc1c(Cl)ccc(C(=O)N3CCC(C4COC4)CC3)c1Cl)n2C [BN-12] |
| 1000 to 10000 | Cc1cc(C#N)cc2c1nc(Cc1c(Cl)ccc(C(=O)N3CCC(N(C)C)CC3)c1Cl)n2C [BN-14] |
| 500 to 1000 | Cc1cc(C#N)cc2c1nc(Cc1c(Cl)ccc(C(=O)N3CCC(CC(C)(C)O)CC3)c1Cl)n2C [BN-16] |
| 100 to 500 | Cc1cc(C(F)(F)F)cc2c1nc(Cc1c(Cl)ccc(CN3CCC(C4COC4)CC3)c1Cl)n2C [BW-1] |
| 100 to 500 | COC1CCN(Cc2ccc(Cl)c(Cc3nc4c(C)cc(C(F)(F)F)cc4n3C)c2Cl)CC1 [BW-2] |
| 100 to 500 | COCC1CCN(Cc2ccc(Cl)c(Cc3nc4c(C)cc(C(F)(F)F)cc4n3C)c2Cl)CC1 [BW-3] |
| 100 to 500 | Cc1cc(C(F)(F)F)cc2c1nc(Cc1c(Cl)ccc(CN3CCC(O)CC3)c1Cl)n2C [BW-4] |
| 100 to 500 | Cc1cc(C(F)(F)F)cc2c1nc(Cc1c(Cl)ccc(CN3CCCC(O)C3)c1Cl)n2C (stereo not shown) [BW-5] |
| 100 to 500 | Cc1cc(C(F)(F)F)cc2c1nc(Cc1c(Cl)ccc(CN3CCC(C(C)(C)CO)CC3)c1Cl)n2C [BW-6] |
| 100 to 500 | Cc1cc(C(F)(F)F)cc2c1nc(Cc1c(Cl)ccc(CN3CCC(C(C)(C)O)CC3)c1Cl)n2C [BW-7] |
| 100 to 500 | Cc1cc(C(F)(F)F)cc2c1nc(Cc1c(Cl)ccc(CN3CCC4(CCOC4)CC3)c1Cl)n2C [BW-8] |
| 100 to 500 | COCCN1CCN(Cc2ccc(Cl)c(Cc3nc4c(C)cc(C(F)(F)F)cc4n3C)c2Cl)CC1 [BW-9] |
| 100 to 500 | Cc1cc(C(F)(F)F)cc2c1nc(Cc1c(Cl)ccc(CN3CCOCC3)c1Cl)n2C [BW-10] |
| 100 to 500 | Cc1cc(C(F)(F)F)cc2c1nc(Cc1c(Cl)ccc(CN3CCC(CCO)CC3)c1Cl)n2C [BW-11] |
| 500 to 1000 | Cc1cc(C(F)(F)F)cc2c1nc(Cc1c(Cl)ccc(CN3CCC(CC(C)(C)O)CC3)c1Cl)n2C [BW-12] |
